Experimental data taken from ChEMBL document CHEMBL1201862, “PubChem BioAssay data set” (2004).
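How tested: cells in 96-well plates exposed to compound for 48 hours at five concentrations. GI50 is the concentration that inhibits growth by half.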 Active and inactive are the calls of the source. Rule as the data show it: active = GI50 up to about 1.1 µM and inactive = higher.

Key:
Test in all cases: NCI tumour cell line growth inhibition, 48 h
[1] = tested on: OVCAR-3
[2] = tested on: M14
[3] = tested on: HCT-15
[4] = tested on: HCC 2998
[5] = tested on: COLO 205
[6] = tested on: SF-539
[7] = tested on: MCF7
[8] = tested on: MDA-N
[9] = tested on: NCI-H23
[10] = tested on: U-251
[11] = tested on: SR
[12] = tested on: KM12
[13] = tested on: SW-620
[14] = tested on: CAKI-1
[15] = tested on: K562
[16] = tested on: EKVX
[17] = tested on: BT-549
[18] = tested on: TK-10
[19] = tested on: HOP-92

Row | SMILES | GI50 [1] | GI50 [2] | GI50 [3] [µM] | GI50 [4] | GI50 [5] | GI50 [6] | GI50 [7] | GI50 [8] | GI50 [9] | GI50 [10] | GI50 [11] | GI50 [12] | GI50 [13] | GI50 [14] | GI50 [15] | GI50 [16] | GI50 [17] | GI50 [18] | GI50 [19]
1 | COc1ccc(-c2nc(O)c3ccccc3n2)cc1OC | > 100 µM (inactive) | > 100 µM (inactive) | 50 | > 100 µM (inactive) | > 100 µM (inactive) | 37.8 µM (inactive) | > 100 µM (inactive) | > 100 µM (inactive) | > 100 µM (inactive) | 23.1 µM (inactive) | > 100 µM (inactive) | > 100 µM (inactive) | > 100 µM (inactive) | > 100 µM (inactive) | > 100 µM (inactive) | 18.1 µM (inactive) | 64 µM (inactive) |  | 
2 | Cc1c(C(=O)OCc2ccccc2)[n+]([O-])c2ccccc2[n+]1[O-] | 30.3 µM (inactive) | 32.1 µM (inactive) | 40.9 | 30.8 µM (inactive) | 18.5 µM (inactive) | 42.1 µM (inactive) | 19.5 µM (inactive) | 41.6 µM (inactive) | 33.7 µM (inactive) | 40.8 µM (inactive) | 19.5 µM (inactive) | 28.1 µM (inactive) |  | 24.5 µM (inactive) | 37.6 µM (inactive) | 25.8 µM (inactive) | 57.9 µM (inactive) | 33.2 µM (inactive) | 0.22 µM (active)
3 | OC(C#Cc1ccccc1)(c1ccccc1)c1ccccc1 | 26.7 µM (inactive) | > 100 µM (inactive) | 39.5 | 50.6 µM (inactive) | 50.7 µM (inactive) | 77.1 µM (inactive) | 24 µM (inactive) | 23.4 µM (inactive) | 53.5 µM (inactive) | 26.7 µM (inactive) | 37.4 µM (inactive) | 28 µM (inactive) | 28.4 µM (inactive) | 22.4 µM (inactive) | 34.3 µM (inactive) | 23.8 µM (inactive) | 51.1 µM (inactive) | 31 µM (inactive) | 
4 | O=c1c2cc([N+](=O)[O-])cnc2sn1-c1ccc(Oc2ccccc2)cc1 | 36 µM (inactive) | 53.8 µM (inactive) | > 100 | > 100 µM (inactive) | > 100 µM (inactive) | 23.3 µM (inactive) | 35.3 µM (inactive) | 78 µM (inactive) | 36.4 µM (inactive) | 29.9 µM (inactive) | 49.2 µM (inactive) | 78.5 µM (inactive) | 57 µM (inactive) |  |  | 70.6 µM (inactive) | 52.8 µM (inactive) | > 100 µM (inactive) | 23 µM (inactive)
5 | O=C(CCc1ccc(O)c(O)c1)NCCc1ccc(O)c(O)c1 | 94.2 µM (inactive) | > 100 µM (inactive) | > 100 | > 100 µM (inactive) | > 100 µM (inactive) | > 100 µM (inactive) | 27.8 µM (inactive) | 18.1 µM (inactive) | > 100 µM (inactive) | 17.3 µM (inactive) | 23.9 µM (inactive) | > 100 µM (inactive) | 67.6 µM (inactive) |  | 31.7 µM (inactive) | > 100 µM (inactive) | > 100 µM (inactive) | > 100 µM (inactive) | > 100 µM (inactive)
6 | Cc1cc(-c2nc3cc(F)ccc3s2)ccc1NC(=O)C(C)N (configuration not stated) | 3.41 µM (inactive) | 4.93 µM (inactive) | 2.65 | 0.097 µM (active) | 9.23 µM (inactive) | 10.4 µM (inactive) | 0.0258 µM (active) | 4.21 µM (inactive) | 2.67 µM (inactive) | 4.36 µM (inactive) | 0.351 µM (active) | 3.94 µM (inactive) | 4.62 µM (inactive) | 3.28 µM (inactive) | 5.62 µM (inactive) | 3.1 µM (inactive) | 4.24 µM (inactive) | 0.0501 µM (active) | 3.97 µM (inactive)
7 | Clc1cc(Cl)cc(/N=C/C=C/Nc2cc(Cl)cc(Cl)c2)c1 | 13.7 µM (inactive) | 22.3 µM (inactive) | 14.9 | 15.2 µM (inactive) | 16.5 µM (inactive) | 21.6 µM (inactive) | 13.4 µM (inactive) | 19.4 µM (inactive) | 14.2 µM (inactive) | 17.6 µM (inactive) | 31.8 µM (inactive) | 16.2 µM (inactive) | 19 µM (inactive) | 15.2 µM (inactive) | 23.6 µM (inactive) | 5.12 µM (inactive) | 43.3 µM (inactive) | 29.9 µM (inactive) | 30.8 µM (inactive)
8 | N/C(=N\c1ccccc1)c1ccccc1N | > 100 µM (inactive) | > 100 µM (inactive) | > 100 | > 100 µM (inactive) | > 100 µM (inactive) |  | > 100 µM (inactive) | > 100 µM (inactive) | > 100 µM (inactive) | > 100 µM (inactive) | > 100 µM (inactive) | > 100 µM (inactive) | > 100 µM (inactive) | > 100 µM (inactive) | > 100 µM (inactive) | > 100 µM (inactive) | > 100 µM (inactive) | > 100 µM (inactive) | 2.51 µM (inactive)
9 | CN(C)CCCNC(=O)N/N=C/c1ccc([N+](=O)[O-])cc1 | > 100 µM (inactive) | > 100 µM (inactive) | > 100 | > 100 µM (inactive) | > 100 µM (inactive) | 82.2 µM (inactive) | 53.1 µM (inactive) | 82.4 µM (inactive) | > 100 µM (inactive) | > 100 µM (inactive) | > 100 µM (inactive) | 95.3 µM (inactive) | > 100 µM (inactive) | > 100 µM (inactive) | > 100 µM (inactive) |  | > 100 µM (inactive) | > 100 µM (inactive) | 
10 | Nn1c(Nc2ccc(S(=O)(=O)Nc3ncccn3)cc2)nnc(/C=C/c2c(O)ccc3ccccc23)c1=O | 15.1 µM (inactive) | 29 µM (inactive) | 27.3 | 23.3 µM (inactive) |  |  | 21.6 µM (inactive) | 31.4 µM (inactive) | 19.8 µM (inactive) | 31.9 µM (inactive) | 23.4 µM (inactive) |  | 31.8 µM (inactive) | 26.7 µM (inactive) | 29 µM (inactive) | 24.2 µM (inactive) | 22.3 µM (inactive) | 26.8 µM (inactive) | 66.2 µM (inactive)
11 | C[N+](C)(N)Cc1nc(-c2ccc(Cl)cc2)no1 | > 100 µM (inactive) | > 100 µM (inactive) | > 100 |  | > 100 µM (inactive) | > 100 µM (inactive) | > 100 µM (inactive) | > 100 µM (inactive) | > 100 µM (inactive) | > 100 µM (inactive) | 26.8 µM (inactive) | > 100 µM (inactive) | > 100 µM (inactive) | > 100 µM (inactive) | 44.2 µM (inactive) | 37.7 µM (inactive) | > 100 µM (inactive) | > 100 µM (inactive) | > 100 µM (inactive)
12 | CCC1C(NC(=O)OC)C(=O)N1[C@@H](C)c1ccccc1 (some centres not stated) | > 100 µM (inactive) | > 100 µM (inactive) | > 100 | > 100 µM (inactive) | > 100 µM (inactive) | > 100 µM (inactive) | > 100 µM (inactive) | > 100 µM (inactive) | > 100 µM (inactive) | > 100 µM (inactive) | > 100 µM (inactive) | > 100 µM (inactive) | > 100 µM (inactive) | > 100 µM (inactive) | > 100 µM (inactive) | > 100 µM (inactive) | > 100 µM (inactive) | > 100 µM (inactive) | > 100 µM (inactive)
13 | O=C(O)[C@@H]1C[C@@H](O)CN1C(=O)OCc1ccccc1 | > 100 µM (inactive) | > 100 µM (inactive) | > 100 | > 100 µM (inactive) | > 100 µM (inactive) | > 100 µM (inactive) | > 100 µM (inactive) | > 100 µM (inactive) | > 100 µM (inactive) | > 100 µM (inactive) | > 100 µM (inactive) | > 100 µM (inactive) | > 100 µM (inactive) | > 100 µM (inactive) | > 100 µM (inactive) | > 100 µM (inactive) | > 100 µM (inactive) | > 100 µM (inactive) | > 100 µM (inactive)
14 | O=c1c2ccccc2oc2c1ccc1ncccc12 | 18 µM (inactive) |  | 11.9 | 30.4 µM (inactive) | 17.3 µM (inactive) | 19.6 µM (inactive) | 8.55 µM (inactive) | 20 µM (inactive) | 16.2 µM (inactive) |  | 8.87 µM (inactive) | 24.2 µM (inactive) | 10.7 µM (inactive) | 3.34 µM (inactive) | 24.7 µM (inactive) | 8.2 µM (inactive) | 17.8 µM (inactive) | 6.73 µM (inactive) | 5.53 µM (inactive)
15 | Cc1ccc([N+](=O)[O-])cc1S(=O)(=O)Nc1ccc(C2=NN(S(=O)(=O)c3cc([N+](=O)[O-])ccc3C)C(c3ccccc3O)C2)cc1 (configuration not stated) | 67.3 µM (inactive) | > 100 µM (inactive) | > 100 | > 100 µM (inactive) | > 100 µM (inactive) |  | > 100 µM (inactive) | > 100 µM (inactive) | 53.5 µM (inactive) | 30.6 µM (inactive) | > 100 µM (inactive) | > 100 µM (inactive) | > 100 µM (inactive) | > 100 µM (inactive) | 31.6 µM (inactive) | 57.7 µM (inactive) | > 100 µM (inactive) | 52.5 µM (inactive) | 49.9 µM (inactive)
16 | Nc1nc(=O)c2cc(NCc3ccc(C(=O)NC(CCC(=O)O)C(=O)O)cc3)ccc2[nH]1 (configuration not stated) | > 100 µM (inactive) | 20.8 µM (inactive) | > 100 | 39.8 µM (inactive) | > 100 µM (inactive) | 6.65 µM (inactive) | 6.56 µM (inactive) | > 100 µM (inactive) | > 100 µM (inactive) | > 100 µM (inactive) | 23.3 µM (inactive) | > 100 µM (inactive) | > 100 µM (inactive) | 34.4 µM (inactive) | > 100 µM (inactive) | > 100 µM (inactive) | > 100 µM (inactive) | > 100 µM (inactive) | > 100 µM (inactive)
